Experiments:
Experiment in all cases: relative viability (nuclei count vs DMSO), 5 days (fraction); higher = more cells survive
COR-L23 = test system: COR-L23
Method in brief: (§1)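 Medians of duplicate plates are given as relative viability. That measure is the nuclei count in treated wells divided by the count in vehicle wells. Counts were taken on 4× images of lung cancer cell lines in 1536-well plates, 5 days after pin-tool dosing the day after seeding with one drug alone or a fixed anchor-drug dose plus five library-drug doses (not always all listed) in √10 steps.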

EPLC-272H = test system: EPLC-272H
Method in brief: as §1

HARA = test system: HARA
Method in brief: as §1

HCC-15 = test system: HCC-15
Method in brief: as §1

HCC-44 = test system: HCC-44
Method in brief: as §1

HOP-62 = test system: HOP-62
Method in brief: as §1

LC-2-ad = test system: LC-2-ad
Method in brief: as §1

LU99A = test system: LU99A
Method in brief: as §1

NCI-H1355 = test system: NCI-H1355
Method in brief: as §1

NCI-H1651 = test system: NCI-H1651
Method in brief: as §1

NCI-H1915 = test system: NCI-H1915
Method in brief: as §1

NCI-H1993 = test system: NCI-H1993
Method in brief: as §1

NCI-H2023 = test system: NCI-H2023
Method in brief: as §1

NCI-H2085 = test system: NCI-H2085
Method in brief: as §1

NCI-H2126 = test system: NCI-H2126
Method in brief: as §1

NCI-H2347 = test system: NCI-H2347
Method in brief: as §1

NCI-H838 = test system: NCI-H838
Method in brief: as §1

PC-14 = test system: PC-14
Method in brief: as §1

SW 1573 = test system: SW 1573
Method in brief: as §1

UMC-11 = test system: UMC-11
Method in brief: as §1

Nc1ccn([C@@H]2O[C@H](CO)[C@@H](O)[C@@H]2O)c(=O)n1 [Cytarabine] + CC1(C)CCC(c2ccc(Cl)cc2)=C(CN2CCN(c3ccc(C(=O)NS(=O)(=O)c4ccc(N[C@H](CCN5CCOCC5)CSc5ccccc5)c(S(=O)(=O)C(F)(F)F)c4)cc3)CC2)C1 [Navitoclax] (partner 0.5 µM)
relative viability (COR-L23; first compound 0.005 µM): 0.944 | relative viability (COR-L23; first compound 0.01581 µM): 0.842 | relative viability (COR-L23; first compound 0.05 µM): 0.555 | relative viability (COR-L23; first compound 0.1581 µM): 0.168 | relative viability (COR-L23; first compound 0.5 µM): 0.129 | relative viability (EPLC-272H; first compound 0.005 µM): 1.01 | relative viability (EPLC-272H; first compound 0.01581 µM): 0.849 | relative viability (EPLC-272H; first compound 0.05 µM): 0.842 | relative viability (EPLC-272H; first compound 0.1581 µM): 0.33 | relative viability (EPLC-272H; first compound 0.5 µM): 0.247 | relative viability (HARA; first compound 0.005 µM): 1.09 | relative viability (HARA; first compound 0.01581 µM): 0.593 | relative viability (HARA; first compound 0.05 µM): 0.302 | relative viability (HARA; first compound 0.1581 µM): 0.178 | relative viability (HARA; first compound 0.5 µM): 0.131 | relative viability (HCC-15; first compound 0.005 µM): 0.669 | relative viability (HCC-15; first compound 0.01581 µM): 0.733 | relative viability (HCC-15; first compound 0.05 µM): 0.609 | relative viability (HCC-15; first compound 0.1581 µM): 0.562 | relative viability (HCC-15; first compound 0.5 µM): 0.43 | relative viability (HCC-44; first compound 0.005 µM): 0.949 | relative viability (HCC-44; first compound 0.01581 µM): 1.01 | relative viability (HCC-44; first compound 0.05 µM): 0.534 | relative viability (HCC-44; first compound 0.1581 µM): 0.563 | relative viability (HCC-44; first compound 0.5 µM): 0.26 | relative viability (HOP-62; first compound 0.005 µM): 0.946 | relative viability (HOP-62; first compound 0.01581 µM): 0.405 | relative viability (HOP-62; first compound 0.05 µM): 0.342 | relative viability (HOP-62; first compound 0.1581 µM): 0.104 | relative viability (HOP-62; first compound 0.5 µM): 0.0809 | relative viability (LC-2-ad; first compound 0.005 µM): 0.385 | relative viability (LC-2-ad; first compound 0.01581 µM): 0.328 | relative viability (LC-2-ad; first compound 0.05 µM): 0.268 | relative viability (LC-2-ad; first compound 0.1581 µM): 0.2 | relative viability (LC-2-ad; first compound 0.5 µM): 0.188 | relative viability (LU99A; first compound 0.005 µM): 0.906 | relative viability (LU99A; first compound 0.01581 µM): 0.826 | relative viability (LU99A; first compound 0.05 µM): 0.771 | relative viability (LU99A; first compound 0.1581 µM): 0.726 | relative viability (LU99A; first compound 0.5 µM): 0.56 | relative viability (NCI-H1355; first compound 0.005 µM): 0.897 | relative viability (NCI-H1355; first compound 0.01581 µM): 0.811 | relative viability (NCI-H1355; first compound 0.05 µM): 0.819 | relative viability (NCI-H1355; first compound 0.1581 µM): 0.325 | relative viability (NCI-H1355; first compound 0.5 µM): 0.203 | relative viability (NCI-H1651; first compound 0.005 µM): 0.993 | relative viability (NCI-H1651; first compound 0.01581 µM): 1.18 | relative viability (NCI-H1651; first compound 0.05 µM): 1.24 | relative viability (NCI-H1651; first compound 0.1581 µM): 0.625 | relative viability (NCI-H1651; first compound 0.5 µM): 0.3 | relative viability (NCI-H1915; first compound 0.005 µM): 0.799 | relative viability (NCI-H1915; first compound 0.01581 µM): 0.719 | relative viability (NCI-H1915; first compound 0.05 µM): 0.714 | relative viability (NCI-H1915; first compound 0.1581 µM): 0.411 | relative viability (NCI-H1915; first compound 0.5 µM): 0.386 | relative viability (NCI-H1993; first compound 0.005 µM): 0.92 | relative viability (NCI-H1993; first compound 0.01581 µM): 0.949 | relative viability (NCI-H1993; first compound 0.05 µM): 0.721 | relative viability (NCI-H1993; first compound 0.1581 µM): 0.548 | relative viability (NCI-H1993; first compound 0.5 µM): 0.624 | relative viability (NCI-H2023; first compound 0.005 µM): 0.549 | relative viability (NCI-H2023; first compound 0.01581 µM): 0.356 | relative viability (NCI-H2023; first compound 0.05 µM): 0.195 | relative viability (NCI-H2023; first compound 0.1581 µM): 0.108 | relative viability (NCI-H2023; first compound 0.5 µM): 0.103 | relative viability (NCI-H2085; first compound 0.005 µM): 1.15 | relative viability (NCI-H2085; first compound 0.01581 µM): 1.08 | relative viability (NCI-H2085; first compound 0.05 µM): 1.02 | relative viability (NCI-H2085; first compound 0.1581 µM): 0.731 | relative viability (NCI-H2085; first compound 0.5 µM): 0.728 | relative viability (NCI-H2126; first compound 0.005 µM): 0.866 | relative viability (NCI-H2126; first compound 0.01581 µM): 0.705 | relative viability (NCI-H2126; first compound 0.05 µM): 0.679 | relative viability (NCI-H2126; first compound 0.1581 µM): 0.53 | relative viability (NCI-H2126; first compound 0.5 µM): 0.454 | relative viability (NCI-H2347; first compound 0.005 µM): 0.911 | relative viability (NCI-H2347; first compound 0.01581 µM): 0.786 | relative viability (NCI-H2347; first compound 0.05 µM): 0.635 | relative viability (NCI-H2347; first compound 0.1581 µM): 0.531 | relative viability (NCI-H2347; first compound 0.5 µM): 0.449 | relative viability (NCI-H838; first compound 0.005 µM): 1.29 | relative viability (NCI-H838; first compound 0.01581 µM): 1.18 | relative viability (NCI-H838; first compound 0.05 µM): 0.816 | relative viability (NCI-H838; first compound 0.1581 µM): 0.446 | relative viability (NCI-H838; first compound 0.5 µM): 0.262 | relative viability (PC-14; first compound 0.005 µM): 0.918 | relative viability (PC-14; first compound 0.01581 µM): 1.03 | relative viability (PC-14; first compound 0.05 µM): 0.803 | relative viability (PC-14; first compound 0.1581 µM): 0.314 | relative viability (PC-14; first compound 0.5 µM): 0.119 | relative viability (SW 1573; first compound 0.005 µM): 0.979 | relative viability (SW 1573; first compound 0.01581 µM): 0.79 | relative viability (SW 1573; first compound 0.05 µM): 0.556 | relative viability (SW 1573; first compound 0.1581 µM): 0.223 | relative viability (SW 1573; first compound 0.5 µM): 0.103 | relative viability (UMC-11; first compound 0.005 µM): 0.268 | relative viability (UMC-11; first compound 0.01581 µM): 0.197 | relative viability (UMC-11; first compound 0.05 µM): 0.2 | relative viability (UMC-11; first compound 0.1581 µM): 0.141 | relative viability (UMC-11; first compound 0.5 µM): 0.125

Reference: the supplement of paper PMC10307832
